Earlier results in US20170020130A1, “METHOD OF PREPARATION AND COMPOSITION OF ANT[…]” (Eltron Research & Development, LLC, priority 2008, published 2017).

Conditions: alkaline pH (7.5≦pH≦10.5), near the pKa

For CC(=O)OO [peracetic acid], the “stability (decomposition with evolution of oxygen)” value is listed as “least stable”.
